Several values for one entry are separate records, joined by “and”; a condition that tells them apart may be missing. Equal entries are not always repeated. Where two headings read alike, the source gives them in different places.
How the values were obtained:
[1] = system: phosphotyrosine-STAT3; assay: Inhibition of phosphotyrosine-STAT3 levels in tumor cell lines (Western blotting); format: cell-based, human
Experimental: (§1) Western blotting. Treated cell samples were lysed in 30 mM HEPES, pH 7.5, 10 mM NaCl, 5 mM MgCl2, 25 mM NaF, 1 mM EGTA, 1% Triton X-100, 10% glycerol, 2 mM sodium orthovanadate, 10 μg/ml aprotinin, 10μ/ml soybean trypsin inhibitor, 25 μg/ml leupeptin, 2 mM PMSF, and 6.4 mg/ml p-nitrophenylphosphate. Phospho-STAT3, phospho-AKT, phospho-Src, and phospho-p42/p44 MAPK antibodies were obtained from Cell Signaling Technologies (Cambridge, Mass., USA). Phospho-JNK and whole STAT3 antibodies were purchased from Santa Cruz Biotechnology (Santa Cruz, Calif., USA); phospho-JAK2 antibody came from Upstate Biotechnology (Lake Placid, N.Y., USA). Membranes were blocked in either 5% milk in phosphate-buffered saline (PBS), pH 7.4, containing 0.1% Tween-20 (PBS-T) or 1% BSA in tris-buffered saline (TBS), pH 7.5, containing 0.1% Tween-20 (TBS-T). Phospho-specific antibodies (excepting P-MAPK and P-JNK) were incubated in 1% BSA in TBS-T while all other antibodies were diluted in 5% milk in PBS-T for either 2 h at room temperature or overnight at 4° C. HRP-conjugated secondary antibodies (Jackson ImmunoResearch, West Grove, Pa., USA) were diluted in 5% milk in either PBS-T or TBS-T at 1:1000 dilution for 1 h at room temperature. Western blots were visualized using enhanced chemiluminescence.
(§2) To this end, A549 cells (a human non-small-cell lung carcinoma line) were treated with either vehicle, cucurbitacin analogs A, B, E, or I, or withacnistin mixture (10 ∥M) for 4 hours and the cell lysates processed for Western blotting with antiphosphotyrosine STAT3 (Y705) antibody or antiphosphotyrosine JAK2 (Y1007, Y1008) antibody as described under Materials and Methods.
(§3) As further support of the specific antiphosphotyrosine STAT3, but not antiphosphotyrosine JAK2, activity of withacnistin, A549 cells, as well as two breast carcinoma cell lines (MDA-MB-435 and MDA-MB-468) that also express constitutively activated JAK2 and STAT3, were treated with the withacnistin mixture at various concentrations, and determined IC50 values of inhibition of STAT3 and JAK2 activation.

[2] = system: phosphotyrosine-JAK2; assay: Inhibition of phosphotyrosine-JAK2 levels in tumor cell lines (Western blotting); format: cell-based, human; conditions: for levels of P-JAK2: A549 cells, 10 μM, 4 hours
Experimental: as §1, §2, §3

[3] = system: A549 tumors; assay: Antitumor activity in nude mouse xenograft model, A549; format: in vivo; conditions: nude mice
Source text: (§4) Antitumor activity in the nude mouse tumor xenograft model. Nude mice (Charles River, Wilmington, Mass., USA) were maintained in accordance with the Institutional Animal Care and Use Committee (IACUC) procedures and guidelines. A549 cells were harvested, resuspended in PBS, and injected subcutaneously (s.c.) into the right and left flank (1×10^7 cells per flank) of 8-week-old female nude mice as reported previously (Blaskovich, M. A. et al. Cancer Res., 2003, 63:1270-1279). When tumors reached about 150 mm^3, animals were randomized (four animals per group; two tumors per animal) and dosed intraperitoneally (i.p.) either with cucurbitacin analogs (0.5 or 1 mg/kg/day, i.p.) in 20% DMSO in water or with an equal volume of vehicle control. The tumor volumes were determined by measuring the length (l) and the width (w) and calculating the volume (V=lw^2/2) as described previously (Blaskovich, M. A. et al. Cancer Res., 2003, 63:1270-1279). Statistical significance between control and treated animals were evaluated by using Student's t-test.
(§5) To determine the ability of the cucurbitacin analogs and withacnistin to inhibit tumor growth in vivo, the antitumor activity of the cucurbitacin analogs and withacnistin against both A549 and v-Src/3T3 tumors in a nude mouse xenograft model was evaluated. When the tumors became palpable (at volumes of approximately 100-150 mm^3), the mice were treated either with vehicle control or 1 mg/kg/day of the cucurbitacins or the withacnistin mixture. Tumor volumes were monitored by caliper measurement as previously described (Blaskovich, M. A. et al. Cancer Res., 2003, 63:1270-1279) and under Materials and Methods.

[4] = system: v-Src/3T3 tumors; assay: Antitumor activity in nude mouse xenograft model, v-Src/3T3; format: in vivo; conditions: v-Src/3T3 xenograft, nude mice
Source text: as §4, §5
Withacnistin inhibited 57% of tumor growth while Cuc I, B, and E inhibited 45, 40, and 42% of tumor growth, respectively (FIG. 3 and Table 2).

[5] = 0.5 mg/kg/day i.p., 0.5 mg/kg/day
[6] = 1 mg/kg/day i.p., Wit = withacnistin mixture

Molecule | P-STAT3 levels ([1]; A549 cells (FIG. 8A)) | P-JAK2 levels ([2]; A549 cells (FIG. 8A)) | levels of P-STAT3 [1] | levels of P-JAK2 [2] | % Inhibition of tumor growth [3, 5] | % Inhibition of tumor growth [4, 5] | levels of P-STAT3 ([1]; A549 cells, 10 μM, 4 hours) | % Inhibition of tumor growth [3, 6] [%] | % Inhibition of tumor growth [4, 6] [%]
3-ethoxy-2,3-dihydrowithacnistin [EDH-Wit] | suppressed neither | suppressed neither | – | – | – | – | – | – | –
CC(=O)OC(C)(C)/C=C/C(=O)[C@](C)(O)[C@H]1[C@H](O)C[C@@]2(C)[C@@H]3CC=C4[C@H](C[C@H](O)C(=O)C4(C)C)[C@]3(C)C(=O)C[C@]12C [Cuc B, cucurbitacin B] | – | – | inhibited | inhibited | 53.6% and 53.6^b % | 40% and 40^a % | – | – | –
CC(=O)OC(C)(C)/C=C/C(=O)[C@](C)(O)[C@H]1[C@H](O)C[C@@]2(C)[C@@H]3CC=C4[C@@H](C=C(O)C(=O)C4(C)C)[C@]3(C)C(=O)C[C@]12C [Cuc E, cucurbitacin E] | – | – | – | inhibited | – | – | inhibited | 48.5 | 42
